Measurements taken from patent publication US12180192B2, “Modulators of THR-β and methods of use thereof” (ALIGOS THERAPEUTICS, INC., priority 2019, dated 2024).

Tests used:
[1] = biological target: T1, human thyroid receptor beta ligand-binding domain (LBD) (Homo sapiens, UniProt P10828); test: TR-FRET thyroid receptor beta coactivator assay (THR biochemical assay, Assay 1); details: for EC50: THR-beta, TR-FRET coactivator assay, read-out: Activity category Assay 1 (EC50, THR-beta agonist); for Emax: Table 5, Assay 1, THRβ, read-out: Activity category Assay 1 THRβ (Emax)
T1 construct: purchased Invitrogen
T1 sequence (P10828 217-461 limits assumed): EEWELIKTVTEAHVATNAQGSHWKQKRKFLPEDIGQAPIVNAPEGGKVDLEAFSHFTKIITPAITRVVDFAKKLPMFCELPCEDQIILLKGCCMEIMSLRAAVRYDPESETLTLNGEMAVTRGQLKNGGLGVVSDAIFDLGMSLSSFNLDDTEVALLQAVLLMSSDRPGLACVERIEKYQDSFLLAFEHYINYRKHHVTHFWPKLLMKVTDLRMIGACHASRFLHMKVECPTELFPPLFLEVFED
Procedure, shortened: (§1)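 Agonist-driven coactivator recruitment measured by TR-FRET: terbium anti-GST antibody (2 nM) bound to GST-LBD of TRβ or TRα (1 nM final, stated for β), with fluorescein SRC2-2 peptide at 200 nM. Compounds at 1% DMSO. Read after 1 h, room temperature, protected from light.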

[2] = biological target: T2, human thyroid receptor alpha ligand-binding domain (LBD) (Homo sapiens, UniProt P10827); test: TR-FRET thyroid receptor alpha coactivator assay (THR biochemical assay, Assay 1); details: for EC50: Table 4, THR-alpha, read-out: Activity category Assay 1 (EC50, THR-alpha agonist activity); for Emax: Table 5, THRα, read-out: Activity category Assay 1 THRα (Emax)
T2 construct: purchased Invitrogen
Procedure, shortened: as §1

THR beta = biological target: T3, THR beta (Homo sapiens, UniProt P10828); test: HEK293T THR beta/RXR luciferase reporter assay (Assay 2); type: cell-based; details: for Emax: HEK-293T, Table 5, Assay 2, THRβ, read-out: Activity category Assay 2 THRβ (Emax); for EC50: THR-beta, HEK293T reporter assay, read-out: Activity category Assay 2 (EC50, THR-beta agonist)
T3 construct: expressed in transfected cells; host or cells: HEK293T (ATCC CRL-3216)
T3 sequence (P10828 1-461): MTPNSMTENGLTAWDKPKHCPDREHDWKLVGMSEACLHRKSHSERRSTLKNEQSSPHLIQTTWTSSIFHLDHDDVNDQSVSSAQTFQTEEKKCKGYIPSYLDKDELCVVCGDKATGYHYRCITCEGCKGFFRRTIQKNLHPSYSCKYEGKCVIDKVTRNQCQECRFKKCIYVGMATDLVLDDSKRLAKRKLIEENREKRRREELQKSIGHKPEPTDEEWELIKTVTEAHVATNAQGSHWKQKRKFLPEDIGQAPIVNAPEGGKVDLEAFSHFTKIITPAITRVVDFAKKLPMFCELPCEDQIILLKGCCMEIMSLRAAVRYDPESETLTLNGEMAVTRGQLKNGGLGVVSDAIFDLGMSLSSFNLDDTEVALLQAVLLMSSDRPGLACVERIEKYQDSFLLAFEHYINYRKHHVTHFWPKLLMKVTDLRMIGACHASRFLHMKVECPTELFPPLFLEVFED
T3 sequence (P19793 1-462 partner): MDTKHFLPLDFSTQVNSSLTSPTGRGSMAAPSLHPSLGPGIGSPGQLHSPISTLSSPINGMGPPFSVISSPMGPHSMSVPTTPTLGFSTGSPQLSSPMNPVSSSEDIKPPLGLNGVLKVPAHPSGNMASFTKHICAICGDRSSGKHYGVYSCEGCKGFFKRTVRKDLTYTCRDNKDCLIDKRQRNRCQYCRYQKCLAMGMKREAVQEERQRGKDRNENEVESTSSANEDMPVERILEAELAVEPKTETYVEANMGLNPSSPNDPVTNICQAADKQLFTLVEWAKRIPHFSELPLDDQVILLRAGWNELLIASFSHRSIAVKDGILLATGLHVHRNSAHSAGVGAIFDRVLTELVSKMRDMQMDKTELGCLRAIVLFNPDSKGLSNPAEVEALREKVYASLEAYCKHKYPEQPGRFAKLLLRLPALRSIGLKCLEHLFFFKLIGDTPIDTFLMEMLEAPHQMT
Procedure, shortened: (§2)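 Compounds tested as ten-point five-fold dilution series for 18-24 h on transiently transfected HEK293T cells carrying TRE-driven luciferase plus RXR and either THR alpha or beta expression plasmids. Read-out by One-Glo luminescence, expressed as percent agonism relative to negative and positive controls.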

THR alpha = biological target: T4, THR alpha (Homo sapiens, UniProt P10827); test: HEK293T THR alpha/RXR luciferase reporter assay (Assay 2); type: cell-based; details: Assay 2; for Emax: HEK-293T, Table 5, THRα, read-out: Activity category Assay 2 THRα (Emax); for EC50: Table 4, THR-alpha, read-out: Activity category Assay 2 (EC50, THR-alpha agonist activity)
T4 construct: expressed in transfected cells; host or cells: HEK293T (ATCC CRL-3216)
T4 sequence (P10827 1-410 isoform P10827-2): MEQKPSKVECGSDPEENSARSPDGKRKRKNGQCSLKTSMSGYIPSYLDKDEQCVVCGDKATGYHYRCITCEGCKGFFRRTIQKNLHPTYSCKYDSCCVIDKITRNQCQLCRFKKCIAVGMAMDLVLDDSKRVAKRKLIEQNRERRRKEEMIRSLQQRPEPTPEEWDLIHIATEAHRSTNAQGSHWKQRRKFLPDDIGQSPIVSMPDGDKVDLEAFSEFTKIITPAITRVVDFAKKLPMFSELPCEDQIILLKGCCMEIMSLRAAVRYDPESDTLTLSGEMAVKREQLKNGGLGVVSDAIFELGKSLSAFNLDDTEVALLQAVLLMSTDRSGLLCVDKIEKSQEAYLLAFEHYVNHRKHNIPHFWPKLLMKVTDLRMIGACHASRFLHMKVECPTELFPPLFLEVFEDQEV
T4 sequence (P19793 1-462 partner): T3 sequence (P19793 1-462 partner)
Procedure, shortened: as §2

SMILES	EC50 [1] [nM]	Emax [1] [%]	EC50 [2] [nM]	Emax [2] [%]	Emax (THR beta) [%]	EC50 (THR beta) [nM]	Emax (THR alpha) [%]	EC50 (THR alpha) [nM]
CC(c1c[nH]c2ccc(Oc3c(Cl)cc(-n4nc(C#N)c(=O)[nH]c4=O)cc3Cl)cc12)C(F)(F)F (centres unmarked) [Compound 45, 2-(3,5-dichloro-4-[[3-(1,1,1-trifluoropropan-2-yl)-1H-indol-5-yl]oxy]phenyl)-3,5-dioxo-4H-1,2,4-triazine-6-carbonitrile]	< 50	< 50	< 50	< 50	> 75	50 to 250	> 75	250 to 1000
CCc1cccc(-c2cc(Oc3c(Cl)cc(-n4nc(N)c(=O)[nH]c4=O)cc3Cl)n[nH]c2=O)c1 [Compound 71, 6-Amino-2-(3,5-dichloro-4-((5-(3-ethylphenyl)-6-oxo-1,6-dihydro-pyridazin-3-yl)oxy)phenyl)-1,2,4-triazine-3,5(2H,4H)-dione]	< 50	< 50	50 to 250	< 50	> 75	< 50	50 to 75	50 to 250
Nc1nn(-c2cc(Cl)c(Oc3n[nH]c(=O)cc3-c3cc4ccccc4cn3)c(Cl)c2)c(=O)[nH]c1=O [Compound 134]	< 50	< 50	250 to 1000	< 50	50 to 75	250 to 1000	< 50	> 10000
Cc1cc2cc(Oc3c(Cl)cc(-n4nc(C#N)c(=O)[nH]c4=O)cc3Cl)ccc2[nH]c1=O [Compound 154, 2-[3,5-dichloro-4-[(3-methyl-2-oxo-1H-quinolin-6-yl)oxy]phenyl]-3,5-dioxo-1,2,4-triazine-6-carbonitrile]	50 to 250	< 50	> 25000	< 50		> 10000	< 50	
Cc1cccc(-c2cc(Oc3c(Cl)cc(-n4ncc(=O)[nH]c4=O)cc3Cl)n[nH]c2=O)c1 [Compound 139]	50 to 250	< 50	50 to 250	< 50	50 to 75	< 50	< 50	50 to 250
C[C@H]1C[C@@H](c2cc(Oc3c(Cl)cc(-n4nc(N)c(=O)[nH]c4=O)cc3Cl)n[nH]c2=O)C1 (single isomer, unassigned) [Compound 86-B, 6-Amino-2-(3,5-dichloro-4-((5-((1s,3s)-3-methylcyclobutyl)-6-oxo-1,6-dihydropyridazin-3-yl)oxy)phenyl)-1,2,4-triazine-3,5(2H,4H)-dione]	50 to 250	< 50	1000 to 25000	< 50	> 75	250 to 1000	< 50	1000 to 10000
Cc1cc(-c2cc(Oc3c(Cl)cc(-n4nc(N)c(=O)[nH]c4=O)cc3Cl)n[nH]c2=O)ccc1Cl [Compound 116]	50 to 250	< 50	> 25000	< 50	< 50	50 to 250	< 50	> 10000

Continued, values first:

EC50 [1] [nM]	Emax [1] [%]	EC50 [2] [nM]	Emax [2] [%]	Emax (THR beta) [%]	EC50 (THR beta) [nM]	Emax (THR alpha) [%]	EC50 (THR alpha) [nM]	SMILES
< 50	< 50	> 25000	< 50	> 75	1000 to 10000	< 50	> 10000	N#Cc1nn(-c2cc(Cl)c(Oc3ccc4[nH]cc(C#N)c4c3)c(Cl)c2)c(=O)[nH]c1=O [Compound 17, 5-[2,6-dichloro-4-(6-cyano-3,5-dioxo-4H-1,2,4-triazin-2-yl)phenoxy]-1H-indole-3-carbonitrile]
< 50	50 to 75	50 to 250	< 50	> 75	< 50	50 to 75	50 to 250	Nc1nn(-c2cc(Cl)c(Oc3cc(-c4cccc(Cl)c4)c(=O)[nH]n3)c(Cl)c2)c(=O)[nH]c1=O [Compound 68, 6-Amino-2-(3,5-dichloro-4-((5-(3-chlorophenyl)-6-oxo-1,6-dihydropyridazin-3-yl)oxy)phenyl)-1,2,4-triazine-3,5(2H,4H)-dione]
< 50	50 to 75	< 50	50 to 75	> 75	50 to 250	> 75	250 to 1000	CCCc1c[nH]c2ccc(Oc3c(Cl)cc(-n4nc(C#N)c(=O)[nH]c4=O)cc3Cl)cc12 [Compound 48, 2-[3,5-dichloro-4-[(3-propyl-1H-indol-5-yl)oxy]phenyl]-3,5-dioxo-4H-1,2,4-triazine-6-carbonitrile]
< 50	> 75	50 to 250	> 75	> 75	< 50	> 75	250 to 1000	CC(C)c1n[nH]c2nnc(Oc3c(Cl)cc(-n4nc(N)c(=O)[nH]c4=O)cc3Cl)cc12 [Compound 75, 6-amino-2-(3,5-dichloro-4-((3-isopropyl-1H-pyrazolo[3,4-c]pyridazin-5-yl)oxy)phenyl)-1,2,4-triazine-3,5 (2H,4H)-dione]
< 50	> 75	< 50	< 50	> 75	50 to 250	> 75	250 to 1000	Cc1cc(-n2nc(C#N)c(=O)[nH]c2=O)cc(C)c1Oc1ccc2[nH]cc(C(C)C)c2c1 [Compound 2, 2-[4-[(3-isopropyl-1H-indol-5-yl)oxy]-3,5-dimethyl-phenyl]-3,5-dioxo-4H-1,2,4-triazine-6-carbonitrile]
< 50	< 50	> 25000	< 50	> 75	250 to 1000	50 to 75	1000 to 10000	N#Cc1nn(-c2cc(Cl)c(Oc3ccc4[nH]cc(C5CCCC5)c4c3)c(Cl)c2)c(=O)[nH]c1=O [Compound 5, 2-[3,5-dichloro-4-[(3-cyclopentyl-1H-indol-5-yl)oxy]phenyl]-3,5-dioxo-4H-1,2,4-tri-azine-6-carbonitrile]
1000 to 25000	< 50	1000 to 25000	< 50	< 50	> 10000	< 50	> 10000	Nc1nn(-c2cc(Cl)c(Oc3cc(Cc4ccc(=O)[nH]n4)c(=O)[nH]n3)c(Cl)c2)c(=O)[nH]c1=O [Compound 160, 6-amino-2-[3,5-dichloro-4-([6-oxo-5-[(6-oxo-1H-pyridazin-3-yl)methyl]-1H-pyridazin-3-yl]oxy)phenyl]-4H-1,2,4-triazine-3,5-dione]
